“Also recorded” adds a separate entry of the source.
Legend:
[1] = test system: wt-RRE-II; assay: SPR binding of aminoglycosides to wt-RRE-II; parameters: species or system HIV-1; settings: for dissociation from wt-RRE-II after 1 min (in words): aminoglycoside-free buffer, pH 7.4, 150 mM NaCl
Experimental: FIGS. 9A and 9B illustrate neomycin B binding to RBE3, RBE3-neg and wt-RRE-II. (A) Semilogarithmic plot. […] Conditions: pH 7.0, 10 mM HEPES, 150 mM NaCl, 0.1 mM EDTA, […].
FIGS. 10A and 10B illustrate paromomycin binding to RBE3, RBE3-neg and wt-RRE-II. (A) Semilogarithmic plot; the dashed line indicates the binding of neomycin B to wt-RRE-II for comparison (B) Scatchard plot. […] Conditions: pH 7.0, 10 mM HEPES, 150 mM NaCl, 0.1 mM EDTA, […].
FIG. 11 illustrates the kinetic stability of wt-RRE-II complexes with neomycin B vs. paromomycin. […] Data points were taken after 1 min of dissociation.
Binding of the aminoglycoside to all three RNA oligonucleotides is observed starting in the low nanomolar concentration range and is non-saturable over the concentration range investigated. […] The high degree of non-specific binding is not surprising considering that aminoglycosides are highly charged polycations that tend to associate nonspecifically with the polyanionic phosphate backbone of RNA. […] Data points corresponding to 0.5 or more equivalents of neomycin B represent equilibrium values and can be analyzed with respect to stoichiometry and affinity of aminoglycoside binding. […] Both sequences bind one molecule of neomycin B with submicromolar affinity followed by weaker association with several additional equivalents of the antibiotic.
Samples were prepared by serial dilutions from stock solutions in RNase free microfuge tubes (Ambion) and were centrifuged at 14000 rpm for degassing. Buffers were filtered through sterile 0.2 &m nylon membranes (Nalgene) under vacuum, except for BIA certified HBS buffer (Pharmacia Biosensor AB) which was used as obtained. All procedures for binding studies were automated as methods using repetitive cycles of sample injection and regeneration. Typically, buffer was injected in the first two cycles to establish a stable baseline value. Samples were injected at a flowrate of 5-10 &L/min using either the KINJECT or the COINJECT command. All aminoglycoside and Rev27 samples were injected from autoclaved 7 mm plastic vials that were capped with pierceable plastic crimp caps. To minimize carry over, samples were injected in order of increasing concentration. The running buffer was identical to the injection buffer, except for the salt dependence study where a single running buffer was used for all injections. Expected values for the equilibrium response of one equivalent of analyte were calculated from the relative molecular weight of the analyte and the immobilized RNA ligand in each flowcells. These values were adjusted by multiplying with a factor of 0.8 or 0.57 for Rev27 or aminoglycosides respectively. These factors arise from the different molar refractive indices of RNA and the analyte and were determined from the Scatchard plot x-axis intercepts of the 1:1 binding isotherms for Rev27 and neomycin B.
Binding Studies with Aminoglycosides.
Neomycin B sulfate (Fluka) was converted to the free base by passing it through Amberlite IRA 400 (OH-- form) and purified by ion exchange chromatography on Dowex 1-X2 100 to remove neomycin C; the purity of neomycin B was verified by NMR in D2 O. Paromomycin sulfate was obtained from Sigma and used as received. Samples were prepared by dilution from 10 mM stock solutions in injection buffer (10 mM HEPES, pH 7.4, 150 mM NaCl, 3.4 mM EDTA). Data points were taken after an association phase of 30 min. A 2 min regeneration pulse of 150 mM Na2 SO4 in injection buffer was used between injections. […]

[2] = test system: AS-wt; assay: SPR binding of aminoglycosides to decoding region A-site model AS-wt; parameters: species or system E. coli; settings: for RNA binding, affinity or specificity for AS-wt (in words): Example 4; for specificity for AS-wt over negative controls (in words): Example 5, HBS-buffer
In short: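 Compounds were injected over biotinylated RNA immobilized on streptavidin SPR chips in HBS (150 mM NaCl, 10 mM HEPES pH 7.4, 3.4 mM EDTA) […]. KD was obtained by non-linear fitting of equilibrium binding isotherms; the KD(AS-U1495A)/KD(AS-wt) ratio defines specificity.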

[3] = cited from earlier work
[4] = test system: Rev-RRE; settings: cited from earlier work
[5] = test system: AS-U1495A; assay: SPR binding of aminoglycosides to AS-U1495A; settings: HBS-buffer
Experimental: The RNA binding properties of 100-800 were analyzed using a surface plasmon resonance based assay that was recently developed in these laboratories. This assay allows the determination of both affinity and specificity of small molecule-RNA interactions. For the analysis, the compounds were injected over a matrix containing RNA that was immobilized through a biotin tag and the equilibrium binding values were recorded at various concentrations.
Non-linear curve fitting was then used to determine the values of the dissociation constants (KD). The specificity of binding, i.e. the ability to discriminate between different RNA sequences was evaluated by comparing the binding to the target sequence (AS-wt) and the negative control (AS-U1495A). […]
For the quantitative measurement of aminoglycoside binding to these sequences, we utilized our recently developed SPR-based assay. […]
In the same manner as illustrated for paromomycin, a panel of aminoglycosides was screened and the results are compiled in the table of FIGS. 46 and 47. […] All data were recorded under near physiological salt conditions (HBS-buffer: 150 mM NaCl, 10 mM HEPES, pH7.4, 3.4 mM EDTA) unless noted otherwise. […]
Plasmon resonance and antimicrobial testing for Example 4. Synthesis of the biotinylated RNA and surface plasmon resonance detected binding experiments were performed as described vida supra. […]

SMILES	number of molecules/sites bound with submicromolar affinity (wt-RRE-II) ([1]; SPR)	dissociation from wt-RRE-II after 1 min (in words) [1]	relative binding affinity for wt-RRE-II (in words) ([1]; comparison of aminoglycosides)	RNA binding, affinity or specificity for AS-wt (in words) [2]	specificity for AS-wt over negative controls (in words) [2]	pKa of N3 [3]	reported inhibitory effect on Rev-RRE binding (in words) [4]	reported inhibition difference between neomycin B and paromomycin, Rev-RRE ([4]; gel-shift assays) [fold]	weaker binding to AS-U1495A than to AS-wt [5] [fold]	temperature dependence of binding to AS-wt (in words) ([2]; Neo16bd, AS-wt and RBE3)
NC[C@@H]1O[C@H](O[C@H]2[C@@H](O)[C@H](O[C@@H]3[C@@H](O)[C@H](N)C[C@H](N)[C@H]3O[C@H]3O[C@H](CN)[C@@H](O)[C@H](O)[C@H]3N)O[C@@H]2CO)[C@H](N)[C@@H](O)[C@@H]1O [Neomycin B]	three different sites, each with a submicromolar dissociation constant; also recorded: three molecules of neomycin B are bound with submicromolar affinity; also recorded: up to three molecules	apparent 1:1 binding isotherm	highest affinity	tightest binder; also recorded: further improvement of the overall affinity, without affecting specificity	specific for AS-wt over the negative control RNAs	< 6				
NC[C@@H]1O[C@H](O[C@H]2[C@@H](O)[C@H](O[C@@H]3[C@@H](O)[C@H](N)C[C@H](N)[C@H]3O[C@H]3O[C@H](CO)[C@@H](O)[C@H](O)[C@H]3N)O[C@@H]2CO)[C@H](N)[C@@H](O)[C@@H]1O [Paromomycin]		No apparent 1:1 binding isotherm is discernible		somewhat higher affinity but lower specificity	specific for AS-wt over the negative control RNAs		virtually no inhibitory effect	> 100	20	tighter at lower temperature

— US6120997A, “Nucleic acid binders having an hydroxyamine motif” (The Scripps Research Institute, priority 1998, dated 2000)
